Reference: patent US6972296B2, “Carboxylic acid derivatives that inhibit the binding of integrins to their receptors” (Encysive Pharmaceuticals Inc., priority 1999, dated 2005)

How the values were obtained:
[1] = biological target: T1, α4β1 integrin (Homo sapiens, UniProt P05556+P13612); test: Adhesion of calcein-labeled Ramos cells to CS1 (fibronectin) peptide conjugated ovalbumin; type: cell-based; conditions: Ramos cell adhesion to CS1 conjugated ovalbumin
T1 construct: endogenous in cells; host or cells: Ramos cells
How it was run: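 Calcein AM-labelled Ramos cells (2.5×10^5/well) with compound, up to 100 μM, added to plates coated with CS1 peptide–ovalbumin (0.5 μg/ml) and blocked with 3% BSA. Binding buffer TBS pH 7.5 with 1 mM each MgCl2, CaCl2, MnCl2; 30 min, 37 °C. After washes, adherent cells lysed and read fluorometrically; […].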

[2] = Table 7, dose required to give 50% inhibition

T1 sequence (P13612 34-1032): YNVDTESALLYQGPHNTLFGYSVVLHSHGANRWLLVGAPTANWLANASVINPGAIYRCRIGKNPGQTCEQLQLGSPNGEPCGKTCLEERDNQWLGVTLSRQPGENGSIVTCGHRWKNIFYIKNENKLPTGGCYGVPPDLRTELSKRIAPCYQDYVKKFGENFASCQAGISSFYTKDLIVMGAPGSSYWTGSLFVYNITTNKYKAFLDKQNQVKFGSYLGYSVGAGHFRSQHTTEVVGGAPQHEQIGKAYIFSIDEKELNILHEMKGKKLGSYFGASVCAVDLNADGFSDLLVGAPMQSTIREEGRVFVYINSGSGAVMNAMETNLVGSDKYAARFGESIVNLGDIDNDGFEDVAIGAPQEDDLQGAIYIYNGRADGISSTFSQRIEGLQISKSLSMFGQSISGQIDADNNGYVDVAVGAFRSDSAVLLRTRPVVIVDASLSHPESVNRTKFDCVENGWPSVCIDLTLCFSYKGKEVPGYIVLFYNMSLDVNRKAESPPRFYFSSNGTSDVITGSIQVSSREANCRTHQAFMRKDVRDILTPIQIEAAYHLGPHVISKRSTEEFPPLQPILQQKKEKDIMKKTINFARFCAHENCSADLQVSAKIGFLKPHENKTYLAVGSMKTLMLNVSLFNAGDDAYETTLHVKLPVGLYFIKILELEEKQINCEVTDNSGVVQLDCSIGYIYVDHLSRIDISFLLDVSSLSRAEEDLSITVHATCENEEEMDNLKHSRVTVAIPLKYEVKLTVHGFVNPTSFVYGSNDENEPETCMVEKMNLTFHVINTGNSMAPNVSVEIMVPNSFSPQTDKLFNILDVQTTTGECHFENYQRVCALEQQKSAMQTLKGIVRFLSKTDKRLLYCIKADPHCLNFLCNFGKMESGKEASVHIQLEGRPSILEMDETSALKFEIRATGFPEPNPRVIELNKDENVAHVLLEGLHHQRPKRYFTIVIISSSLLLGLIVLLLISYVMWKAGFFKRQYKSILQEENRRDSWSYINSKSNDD
T1 sequence (P05556 21-798): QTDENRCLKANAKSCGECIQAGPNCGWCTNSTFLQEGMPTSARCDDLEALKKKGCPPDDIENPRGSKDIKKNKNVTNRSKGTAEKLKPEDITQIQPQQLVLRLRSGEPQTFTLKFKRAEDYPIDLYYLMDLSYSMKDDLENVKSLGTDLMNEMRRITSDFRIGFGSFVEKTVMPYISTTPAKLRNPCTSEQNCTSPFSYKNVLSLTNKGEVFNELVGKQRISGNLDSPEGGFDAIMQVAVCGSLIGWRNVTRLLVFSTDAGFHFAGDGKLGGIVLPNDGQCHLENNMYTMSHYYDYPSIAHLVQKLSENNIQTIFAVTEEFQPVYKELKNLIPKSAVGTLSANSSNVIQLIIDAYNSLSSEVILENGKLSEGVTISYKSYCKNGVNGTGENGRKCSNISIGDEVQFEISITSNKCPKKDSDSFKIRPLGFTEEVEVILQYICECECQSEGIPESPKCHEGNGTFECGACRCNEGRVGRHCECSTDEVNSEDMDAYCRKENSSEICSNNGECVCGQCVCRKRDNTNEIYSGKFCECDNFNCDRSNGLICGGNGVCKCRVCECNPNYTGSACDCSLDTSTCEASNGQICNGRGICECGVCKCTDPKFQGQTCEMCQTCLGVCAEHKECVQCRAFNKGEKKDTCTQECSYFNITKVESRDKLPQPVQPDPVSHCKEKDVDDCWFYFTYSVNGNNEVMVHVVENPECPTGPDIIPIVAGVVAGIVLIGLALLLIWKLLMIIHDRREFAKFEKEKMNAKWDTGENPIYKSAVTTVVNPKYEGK

Row | Compound | melting point [°C] | IC50 ([1]; Table 4, 30 minutes at 37° C.) [nM] | IC50 ([1]; Table 3, 30 minutes at 37° C.) [nM] | IC50 [1, 2] [nM]
1 | CCCCN(C(=O)N[C@@H](CC(=O)O)c1ccc2c(c1)OCO2)C1CC(=O)N(Cc2ccccc2)C1=O (stereo partly drawn) [(3S)-3-(1,3-benzodioxol-5-yl)-3-[({butyl[2,5-dioxo-1-(phenylmethyl)tetrahydro-1H-pyrrol-3-yl]amino}carbonyl)amino]propanoic acid] | 80 to 85 | 70000 |  | 
2 | CCNC(=O)N(CC)C(=O)Nc1ccn(Cc2ccccc2Cl)c(=O)c1NC(=O)N[C@@H](CC(=O)O)c1ccc(C)cc1 [(3S)-3-{[({1-[(2-chlorophenyl)methyl]-4-[({ethyl[(ethylamino)carbonyl]amino}carbonyl)amino]-2-oxo-1,2-dihydro-3-pyridinyl}amino)carbonyl]amino}-3-(4-methylphenyl)propanoic acid] | 128 to 130 |  | 2 | 
3 | O=C(O)C[C@H](NC(=O)Nc1cccn(CC2CCCC2)c1=O)c1ccc2c(c1)OCO2 [(3S)-3-(1,3-benzodioxol-5-yl)-3-[({[1-(cyclopentylmethyl)-2-oxo-1,2-dihydro-3-pyridinyl]amino}carbonyl)amino]propanoic acid] |  | 6000 |  | 
4 | Cn1ccc2ccc([C@H](CC(=O)O)NC(=O)Nc3c(O)c4c(n(Cc5ccccc5Cl)c3=O)CCC4)cc21 |  |  |  | 3
5 | COCCOc1cccc(Cl)c1Cn1c2c(c(O)c(NC(=O)N[C@@H](CC(=O)O)c3ccc(C)cc3)c1=O)CCC2 |  |  |  | 6

The next lines start with the values.

Row | melting point [°C] | IC50 ([1]; Table 4, 30 minutes at 37° C.) [nM] | IC50 ([1]; Table 3, 30 minutes at 37° C.) [nM] | IC50 [1, 2] [nM] | Compound
6 | 124 to 126 |  | 5 |  | Cc1ccc([C@H](CC(=O)O)NC(=O)Nc2c(OCc3ccccc3)cc(C)n(Cc3ccccc3)c2=O)cc1 [(3S)-3-{[({6-methyl-2-oxo-1-(phenylmethyl)-4-[(phenylmethyl)oxy]-1,2-dihydro-3-pyridinyl}amino)carbonyl]amino}-3-(4-methylphenyl)propanoic acid]
7 | 134 to 136 |  | 8 |  | Cc1ccc([C@H](CC(=O)O)NC(=O)Nc2c(O)c3ccccc3n(Cc3ccccc3Cl)c2=O)cc1 [(3S)-3-{[({1-[(2-chlorophenyl)methyl]-4-hydroxy-2-oxo-1,2-dihydro-3-quinolinyl}amino)carbonyl]amino}-3-(4-methylphenyl)propanoic acid]
8 | 113 to 115 |  | 10 |  | Cc1ccc([C@H](CC(=O)O)NC(=O)Nc2c(O)ccn(Cc3ccccc3Cl)c2=O)cc1 [(3S)-3-{[({1-[(2-chlorophenyl)methyl]-4-hydroxy-2-oxo-1,2-dihydro-3-pyridinyl}amino)carbonyl]amino}-3-(4-methylphenyl)propanoic acid]
